This passage reports K inact/Ki and IC50 results from ChEMBL document CHEMBL1130952, “NMR and topochemical studies of peptidomimetic HIV-I protease inhibitors containing a cis-epoxide amide isostere” (Bioorg Med Chem Lett, 1998).

In general, IC50 refers to the point on the concentration scale where inhibition reaches its midpoint. The low end stands for greater potency in that assay, the high end for weaker potency in that assay.

The target in test [1] is Human immunodeficiency virus type 1 protease (Human immunodeficiency virus 1) (UniProt Q72874). Briefly: Second order rate constant was determined for the irreversible inhibition of HIV-1 protease; value ranges from 10e8- 10e10.
Test [2] addresses Human immunodeficiency virus type 1 protease (Human immunodeficiency virus 1, UniProt Q72874). Description: Compound was tested for 50% irreversible inhibition of HIV-1 protease; value ranges from 10-50.

With `CONC(=O)[C@H](NC(=O)C[C@@H]1O[C@@H]1[C@H](Cc1ccccc1)NC(=O)[C@H](CC(N)=O)NC(=O)c1ccc2ccccc2n1)C(C)C`, in test [1], the K inact/Ki stood at 1.67e+06 M⁻¹ s⁻¹. The IC50 in test [2] is 10 nM.

For the molecule `CC(C)[C@@H](NC(=O)C[C@@H]1O[C@@H]1[C@H](Cc1ccccc1)NC(=O)[C@H](CC(N)=O)NC(=O)c1ccc2ccccc2n1)c1ccccc1`, the K inact/Ki in test [1] is 1.67e+06 M⁻¹ s⁻¹. For the same molecule, it took 10 nM to reach half-maximal inhibition in test [2] (IC50).

The molecule `CC(C)[C@H](Cc1ccccc1)NC(=O)C[C@@H]1O[C@@H]1[C@H](Cc1ccccc1)NC(=O)[C@H](CC(N)=O)NC(=O)c1ccc2ccccc2n1` displayed a K inact/Ki in test [1] of 1.67e+06 M⁻¹ s⁻¹. For the same molecule, half-maximal inhibition in test [2] (IC50) required 10 nM.
